According to patent EP1449521A1, “Use of PVP-iodine liposomes for treatment of atopic dermatitis” (EURO-CELTIQUE S.A., priority 2003, dated 2004):

Tested on: Human ciliated epithelium cells
Protocol: A cytotoxic damage of these cells which would cause a restriction of the mucociliar clearance can be determined by a detectable decrease of the ciliary vibration.
Human ciliated epithelium cells were analysed by an in-vitro method which enables the determination of the ciliary activity or ciliary vibration. The corresponding cells were exposed and incubated with 100 je.1 test substance at a temperature of 37 C. After an incubation period of 5 minutes the ciliary vibration was measured.
By using this in-vitro method a nutriant solution (Dulbeco) as standard, a 0.2% chlorohexidine solution (typical antiseptic agent), conventional polyvidone iodine solutions (Betaisodona) of different concentrations (5.0%, 2.5% and 1.25% PVP-iodine) and a liposomal solution containing 4.5% of PVP-iodine were tested.

[H]/N=C(\N/C(=N/[H])NCCCCCCNC(=N)NC(=N)Nc1ccc(Cl)cc1)Nc1ccc(Cl)cc1 [chlorohexidine]
ciliary vibration: decrease of the measured ciliary vibration in comparison to the standard
